Measured values taken from ChEMBL document CHEMBL4602625, “Synthesis, biological evaluation and SAR studies of ursolic acid 3β-ester derivatives as novel CETP inhibitors” (Bioorg Med Chem Lett, 2020).

Tests used:
[1] = molecular target: T1, Cholesteryl ester transfer protein (Homo sapiens) (UniProt P11597); experiment: Inhibition of human CETP at 10 uM relative to control
T1 sequence (whole entry): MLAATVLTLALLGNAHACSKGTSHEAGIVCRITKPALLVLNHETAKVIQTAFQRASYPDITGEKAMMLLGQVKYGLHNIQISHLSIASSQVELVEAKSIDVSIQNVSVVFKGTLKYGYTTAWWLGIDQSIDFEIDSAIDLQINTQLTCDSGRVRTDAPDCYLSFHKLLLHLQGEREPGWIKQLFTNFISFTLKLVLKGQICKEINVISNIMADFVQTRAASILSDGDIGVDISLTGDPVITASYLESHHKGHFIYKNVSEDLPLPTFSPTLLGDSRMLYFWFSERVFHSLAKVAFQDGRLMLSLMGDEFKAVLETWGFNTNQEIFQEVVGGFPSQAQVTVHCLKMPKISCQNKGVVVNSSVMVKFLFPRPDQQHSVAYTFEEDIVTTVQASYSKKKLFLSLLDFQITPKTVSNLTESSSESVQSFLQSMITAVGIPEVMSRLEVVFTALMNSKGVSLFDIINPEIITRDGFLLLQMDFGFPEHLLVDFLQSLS

[2] = molecular target: T2, Cholesteryl ester transfer protein (Homo sapiens, UniProt P11597); experiment: Inhibition of human CETP
T2 sequence (P11597 whole entry): T1 sequence (whole entry)

Q: Which inhibition [1] does the source give for `C[C@H]1[C@H](C)CC[C@]2(C(=O)O)CC[C@]3(C)C(=CC[C@@H]4[C@@]5(C)CC[C@H](OC(=O)C6CC6C(=O)O)C(C)(C)[C@@H]5CC[C@]43C)[C@H]12` (some centres not stated) here?
A: 53.2%

Q: What about the IC50 [2] of the same molecule?
A: 2.4 µM

Q: Which results are given for `C[C@H]1[C@H](C)CC[C@]2(C(=O)O)CC[C@]3(C)C(=CC[C@@H]4[C@@]5(C)CC[C@H](OC(=O)CCCC(=O)O)C(C)(C)[C@@H]5CC[C@]43C)[C@H]12`?
A: inhibition [1]: 55.1%; IC50 [2]: 3.2 µM

Q: What does the source list for `C[C@H]1[C@H](C)CC[C@]2(C(=O)O)CC[C@]3(C)C(=CC[C@@H]4[C@@]5(C)CC[C@H](OC(=O)c6cccc(C(=O)O)c6)C(C)(C)[C@@H]5CC[C@]43C)[C@H]12`?
A: inhibition [1]: 61.8%; IC50 [2]: 3.3 µM

Q: `CC(CC(=O)O)CC(=O)O[C@H]1CC[C@]2(C)[C@H]3CC=C4[C@@H]5[C@@H](C)[C@H](C)CC[C@]5(C(=O)O)CC[C@@]4(C)[C@]3(C)CC[C@H]2C1(C)C` (some centres not stated) was tested. Which inhibition [1] did it give?
A: 1.1%

Q: `C[C@H]1[C@H](C)CC[C@]2(C(=O)O)CC[C@]3(C)C(=CC[C@@H]4[C@@]5(C)CC[C@H](OC(=O)CCCCC(=O)O)C(C)(C)[C@@H]5CC[C@]43C)[C@H]12` was tested. Which inhibition [1] did it give?
A: 23.3%

Q: How did the inhibition [1] turn out when `C[C@H]1[C@H](C)CC[C@]2(C(=O)O)CC[C@]3(C)C(=CC[C@@H]4[C@@]5(C)CC[C@H](OC(=O)CCCCCC(=O)O)C(C)(C)[C@@H]5CC[C@]43C)[C@H]12` was run?
A: 11.1%

Q: How did the IC50 [2] turn out when `C[C@H]1[C@H](C)CC[C@]2(C(=O)O)CC[C@]3(C)C(=CC[C@@H]4[C@@]5(C)CC[C@H](O)C(C)(C)[C@@H]5CC[C@]43C)[C@H]12` [URSOLIC ACID] was run?
A: > 50 µM

Q: `C[C@H]1[C@H](C)CC[C@]2(C(=O)O)CC[C@]3(C)C(=CC[C@@H]4[C@@]5(C)CC[C@H](OC(=O)CC6(CC(=O)O)CCCCC6)C(C)(C)[C@@H]5CC[C@]43C)[C@H]12` was tested. Which inhibition [1] did it give?
A: 1.5%

Q: For `C[C@H]1[C@H](C)CC[C@]2(C(=O)O)CC[C@]3(C)C(=CC[C@@H]4[C@@]5(C)CC[C@H](OC(=O)c6ccccc6)C(C)(C)[C@@H]5CC[C@]43C)[C@H]12`, which inhibition [1] is on record?
A: 22.7%

Q: How did the inhibition [1] turn out when `C[C@H]1[C@H](C)CC[C@]2(C(=O)O)CC[C@]3(C)C(=CC[C@@H]4[C@@]5(C)CC[C@H](OC(=O)c6cccnc6)C(C)(C)[C@@H]5CC[C@]43C)[C@H]12` was run?
A: 11.2%

Q: With `C[C@H]1[C@H](C)CC[C@]2(C(=O)O)CC[C@]3(C)C(=CC[C@@H]4[C@@]5(C)CC[C@H](OC(=O)CCC(=O)O)C(C)(C)[C@@H]5CC[C@]43C)[C@H]12` as the molecule, how does the inhibition [1] read?
A: 42.8%

Q: What about the IC50 [2] of the same molecule?
A: 10.9 µM

Q: How did the inhibition [1] turn out when `COc1cc(F)c(C(C)C)cc1-c1ccc(C(F)(F)F)cc1CN1C(=O)O[C@H](c2cc(C(F)(F)F)cc(C(F)(F)F)c2)[C@@H]1C` was run?
A: 88.4%

Q: With `C[C@H]1[C@H](C)CC[C@]2(C(=O)O)CC[C@]3(C)C(=CC[C@@H]4[C@@]5(C)CC[C@H](OC(=O)CC(C)(C)CC(=O)O)C(C)(C)[C@@H]5CC[C@]43C)[C@H]12` as the molecule, how does the inhibition [1] read?
A: 0%

Q: `C[C@H]1[C@H](C)CC[C@]2(C(=O)O)CC[C@]3(C)C(=CC[C@@H]4[C@@]5(C)CC[C@H](OC(=O)c6ccccc6C(=O)O)C(C)(C)[C@@H]5CC[C@]43C)[C@H]12` was tested. Which inhibition [1] did it give?
A: 47.9%

Q: And the IC50 [2]?
A: 5.5 µM

Q: With `C[C@H]1[C@H](C)CC[C@]2(C(=O)O)CC[C@]3(C)C(=CC[C@@H]4[C@@]5(C)CC[C@H](OC(=O)C6C(C(=O)O)C6(C)C)C(C)(C)[C@@H]5CC[C@]43C)[C@H]12` (some centres not stated) as the molecule, how does the inhibition [1] read?
A: 9%

Q: For `C[C@H]1[C@H](C)CC[C@]2(C(=O)O)CC[C@]3(C)C(=CC[C@@H]4[C@@]5(C)CC[C@H](OC(=O)CC6(CC(=O)O)CCCC6)C(C)(C)[C@@H]5CC[C@]43C)[C@H]12`, which inhibition [1] is on record?
A: 0%

Q: With `C[C@H]1[C@H](C)CC[C@]2(C(=O)O)CC[C@]3(C)C(=CC[C@@H]4[C@@]5(C)CC[C@H](OC(=O)c6ccc(C(=O)O)cc6)C(C)(C)[C@@H]5CC[C@]43C)[C@H]12` as the molecule, how does the inhibition [1] read?
A: 24.5%
